Laboratory results: US7709504B2, “Use of Substituted 2-thio-3,5-dicyano-4-phenyl-6-aminopyridines in the treatment of nausea and vomiting” (Bayer Schering Pharma Aktiengesellschaft, priority 2004, dated 2010)

Test system: ferrets
Experiment: Emetine-induced retching tests on ferrets
Format: in vivo
Conditions: for antiemetic effect: test substance 0.3 and 3.0 mg/kg p.o. 60 min before emetine
Description: Emetine-Induced Retching Tests on Ferrets:
The determination of the antiemetic action follows the method described by Gardner et al. in Brit. J. Pharmacol., 116, 3158-3163, 1995.
Sixty minutes before administration of the test substance, the ferrets were accommodated in individual stainless steel cages (40×50×34 cm) having a grid floor. The animals were then treated with emetine (2 mg/kg p.o.) and observed immediately for a period of 2 hours with a view to the following points: • number of ferrets which show signs of retching and vomiting; • latency up to initial retching (hours, minutes, seconds); • latency up to initial vomiting (hours, minutes, seconds); • retching (how often); • vomiting (how often); • number of nauseas; • average duration of the vomiting periods (minutes, seconds); • serious side effects on behavior.
Retching is defined according to the invention as a rhythmical respiratory movement against closed vocal cords, while vomiting is defined according to the invention as a forced expulsion of the higher stomach and intestinal contents.
32 ferrets were investigated. The substance tested was administered in two doses, orally sixty minutes before emetine administration, and compared to a control group. Ondansetrone (16 mg/kg p.o.) was given under the same experimental conditions and served as a reference substance.
The 32 ferrets were employed repeatedly in order to investigate 4 test substances. The administration scheme for the three-week experiment looked as follows:
The amounts were analyzed and the student's test was used in the comparison of the treated groups with the control group.
The […] data were analyzed, Fisher's exact probability test being used for the comparison of the treated groups with the control group.

[1] = ferrets given emetine 2 mg/kg p.o., vs control group
[2] = 16 mg/kg p.o., ferrets, emetine 2 mg/kg p.o., 2 h observation

For `N#Cc1c(NCCO)nc(SCc2ccccc2)c(C#N)c1-c1ccccc1` [Substance 1], the antiemetic effect [1] was “no significant antiemetic effect”.

`COCCOc1ccc(-c2c(C#N)c(N)nc(SCc3cccnc3)c2C#N)cc1` [Substance 2] was tested, and the antiemetic effect [1] was “no significant antiemetic effect”.

In the case of `CC(=O)Nc1ccc(-c2c(C#N)c(N)nc(SCc3ccccn3)c2C#N)cc1` [Substance 3], the “prevention of emetine-induced vomiting” value (ferrets given emetine 2 mg/kg p.o., test substance in two doses orally 60 min before emetine, vs control group) is reported as “significantly prevented”.

In the case of `Cc1nccn1CC1CCc2c(c3ccccc3n2C)C1=O` (centres unmarked) [ondansetrone, Ondansetrone, reference compound], the “number of ferrets in which emesis was induced” value [2] is reported as “one of 16” and the “quantitative occurrence of retching and vomiting (induced by emetine)” value [2] is reported as “significantly reduced”.
